Reference: PMC2014795 (PLoS Pathogens, 2007)

Target: T1, HLA-DR1 (DRB1*0101) (Homo sapiens, UniProt P01903+P01911, A100R/D57E/F55L/F60I/F76Y/I96L/L162R/M171V/P40L/Q125E/R42F/V115G/Y59C)
T1 construct: the extracellular portion of HLA-DR1 was produced by expression of isolated subunits in Escherichia coli inclusion bodies; made in house
Experiment: biochemical
Type: binding

Row | Structure (SMILES) | IC50
1 | CC(C)C[C@H](NC(=O)[C@H](Cc1ccc(O)cc1)NC(=O)[C@H](CCCNC(=N)N)NC(=O)CNC(=O)[C@H](CCC(=O)O)NC(=O)[C@H](CCCCN)NC(=O)[C@@H](NC(=O)[C@@H](N)CC(N)=O)[C@@H](C)O)C(=O)N[C@H](C(=O)N[C@@H](CC(C)C)C(=O)N[C@@H](CCCCN)C(=O)N[C@@H](C)C(=O)N[C@H](C(=O)N[C@@H](CCCCN)C(=O)N[C@H](C(=O)N[C@@H](CS)C(=O)N[C@@H](CC(=O)O)C(=O)N[C@H](C(=O)N[C@@H](CCCNC(=N)N)C(=O)N[C@H](C(=O)N[C@H](C(=O)O)C(C)C)[C@@H](C)O)C(C)C)C(C)C)C(C)C)C(C)C [Peptide 301] | 0.19 ± 0.016 µM
2 | CC[C@H](C)[C@H](NC(=O)[C@@H](NC(=O)[C@@H]1CCCN1C(=O)[C@H](CCC(=O)O)NC(=O)[C@H](CO)NC(=O)[C@H](CO)NC(=O)[C@H](CCSC)NC(=O)[C@H](Cc1ccc(O)cc1)NC(=O)[C@H](CCCNC(=N)N)NC(=O)[C@H](Cc1ccccc1)NC(=O)[C@@H](NC(=O)[C@@H](NC(=O)[C@H](CC(N)=O)NC(=O)[C@H](C)NC(=O)[C@@H](NC(=O)[C@@H](N)CCC(N)=O)[C@@H](C)O)C(C)C)C(C)C)[C@@H](C)CC)C(=O)N[C@@H](Cc1ccccc1)C(=O)NCC(=O)N[C@@H](CCC(=O)O)C(=O)N[C@@H](CO)C(=O)N[C@@H](CO)C(=O)O [Peptide 302] | 0.037 ± 0.01 µM
3 | CC[C@H](C)[C@H](NC(=O)[C@H](C)NC(=O)[C@H](CCCNC(=N)N)NC(=O)[C@@H](NC(=O)[C@@H](NC(=O)[C@@H](NC(=O)[C@H](Cc1ccccc1)NC(=O)[C@H](Cc1c[nH]c2ccccc12)NC(=O)[C@H](Cc1ccccc1)NC(=O)[C@H](CO)NC(=O)[C@H](CC(N)=O)NC(=O)[C@@H]1CCCN1C(=O)[C@@H](N)CCCNC(=N)N)C(C)C)C(C)C)C(C)C)C(=O)N[C@@H](C)C(=O)N[C@@H](CO)C(=O)N[C@@H](CCSC)C(=O)N[C@H](C(=O)N[C@@H](CCSC)C(=O)N[C@@H](Cc1ccc(O)cc1)C(=O)N[C@@H](CC(C)C)C(=O)N[C@H](C(=O)O)C(C)C)[C@@H](C)CC [Peptide 304] | 4 µM
4 | CC[C@H](C)[C@H](N)C(=O)N1CCC[C@H]1C(=O)N[C@@H](CC(C)C)C(=O)N[C@@H](CO)C(=O)N[C@@H](CCC(=O)O)C(=O)N[C@@H](CCSC)C(=O)N[C@H](C(=O)N[C@H](C(=O)N[C@@H](CCCCN)C(=O)N[C@@H](CC(C)C)C(=O)N[C@H](C(=O)N[C@@H](C)C(=O)N[C@H](C(=O)N[C@@H](CS)C(=O)N[C@@H](CCSC)C(=O)N[C@@H](CCCCN)C(=O)N[C@@H](CS)C(=O)N[C@@H](Cc1ccccc1)C(=O)N[C@@H](CCCCN)C(=O)N[C@@H](CCC(=O)O)C(=O)N[C@@H](C)C(=O)O)C(C)C)[C@@H](C)O)C(C)C)C(C)C [Peptide 305] | 0.029 ± 0.01 µM
5 | CC[C@H](C)[C@H](N)C(=O)N[C@@H](CC(C)C)C(=O)N[C@@H](CCCCN)C(=O)N[C@@H](CO)C(=O)N[C@@H](CC(C)C)C(=O)NCC(=O)N[C@@H](Cc1ccccc1)C(=O)N[C@@H](CCCCN)C(=O)N[C@H](C(=O)N[C@@H](CC(C)C)C(=O)N[C@@H](CC(=O)O)C(=O)NCC(=O)N[C@@H](CO)C(=O)N1CCC[C@H]1C(=O)N[C@H](C(=O)N[C@@H](CO)C(=O)N[C@@H](CC(C)C)C(=O)N[C@@H](CCCNC(=N)N)C(=O)N[C@@H](Cc1ccc(O)cc1)C(=O)NCC(=O)N[C@@H](CO)C(=O)O)[C@@H](C)CC)C(C)C [Peptide 306] | 0.005 ± 0.001 µM
6 | CC[C@H](C)[C@H](NC(=O)CNC(=O)[C@@H](NC(=O)[C@H](CC(C)C)NC(=O)[C@H](CCCCN)NC(=O)[C@H](CC(C)C)NC(=O)[C@H](Cc1ccc(O)cc1)NC(=O)[C@H](CCC(=O)O)NC(=O)[C@H](CCCNC(=N)N)NC(=O)[C@@H](NC(=O)[C@H](CO)NC(=O)[C@@H](NC(=O)[C@@H](N)CC(N)=O)[C@@H](C)O)[C@@H](C)O)[C@@H](C)CC)C(=O)N[C@H](C(=O)N[C@@H](C)C(=O)N[C@H](C(=O)N[C@@H](CCSC)C(=O)N[C@@H](Cc1ccccc1)C(=O)N[C@@H](C)C(=O)N[C@H](C(=O)N[C@@H](Cc1ccc(O)cc1)C(=O)O)[C@@H](C)O)[C@@H](C)CC)[C@@H](C)O [Peptide 308] | 0.023 ± 0.005 µM
7 | CC[C@H](C)[C@H](NC(=O)[C@@H](NC(=O)[C@H](CC(C)C)NC(=O)[C@H](C)NC(=O)[C@@H](NC(=O)[C@H](CC(C)C)NC(=O)[C@H](C)NC(=O)[C@H](CC(C)C)NC(=O)[C@H](CC(C)C)NC(=O)[C@H](CCSC)NC(=O)[C@H](CCC(N)=O)NC(=O)[C@H](Cc1ccc(O)cc1)NC(=O)[C@H](CC(N)=O)NC(=O)[C@H](CCCNC(=N)N)NC(=O)[C@H](CO)NC(=O)[C@@H](NC(=O)[C@H](CC(C)C)NC(=O)[C@@H](N)CCCNC(=N)N)C(C)C)C(C)C)C(C)C)C(=O)N[C@H](C(=O)N[C@@H](CC(C)C)C(=O)N[C@H](C(=O)O)[C@@H](C)O)[C@@H](C)O [Peptide 310] | 0.66 ± 0.025 µM
8 | CC[C@H](C)[C@H](NC(=O)CNC(=O)[C@H](CO)NC(=O)[C@H](CCC(N)=O)NC(=O)[C@H](CC(N)=O)NC(=O)[C@@H](NC(=O)[C@H](Cc1ccccc1)NC(=O)[C@@H]1CCCN1C(=O)[C@H](CCC(=O)O)NC(=O)[C@H](Cc1ccccc1)NC(=O)[C@@H](NC(=O)[C@H](CC(C)C)NC(=O)[C@@H](N)CS)C(C)C)C(C)C)C(=O)N[C@@H](CCC(=O)O)C(=O)N[C@H](C(=O)N[C@@H](CC(C)C)C(=O)N[C@@H](CC(C)C)C(=O)N[C@@H](CC(C)C)C(=O)N[C@@H](Cc1ccc(O)cc1)C(=O)N[C@@H](Cc1ccccc1)C(=O)N[C@@H](CCCCN)C(=O)O)[C@@H](C)CC [Peptide 311] | 3.4 µM
9 | CC[C@H](C)[C@H](NC(=O)[C@H](CCSC)NC(=O)[C@H](Cc1ccc(O)cc1)NC(=O)[C@H](Cc1ccccc1)NC(=O)[C@H](CCC(N)=O)NC(=O)[C@@H](NC(=O)CNC(=O)[C@@H](NC(=O)CN)[C@@H](C)O)C(C)C)C(=O)N[C@H](C(=O)N[C@H](C(=O)NCC(=O)N[C@H](C(=O)N[C@H](C(=O)N[C@H](C(=O)N[C@@H](CC(C)C)C(=O)N[C@@H](C)C(=O)N[C@@H](C)C(=O)N[C@@H](CC(C)C)C(=O)N[C@@H](Cc1ccccc1)C(=O)N[C@@H](CCSC)C(=O)O)[C@@H](C)CC)[C@@H](C)CC)C(C)C)[C@@H](C)CC)C(C)C [Peptide 312] | 0.62 ± 0.11 µM
10 | CC[C@H](C)[C@H](NC(=O)[C@H](Cc1ccccc1)NC(=O)[C@H](CCC(=O)O)NC(=O)[C@H](CC(N)=O)NC(=O)[C@@H](N)[C@@H](C)O)C(=O)N[C@@H](CO)C(=O)N[C@@H](Cc1ccccc1)C(=O)N[C@@H](CC(C)C)C(=O)N[C@@H](CC(C)C)C(=O)N[C@@H](CC(C)C)C(=O)N[C@H](C(=O)N[C@@H](CO)C(=O)N[C@H](C(=O)N1CCC[C@H]1C(=O)N[C@H](C(=O)N[C@@H](Cc1ccc(O)cc1)C(=O)N[C@@H](CC(N)=O)C(=O)N[C@H](C(=O)N[C@@H](CC(C)C)C(=O)N[C@@H](Cc1ccccc1)C(=O)N[C@@H](Cc1c[nH]c2ccccc12)C(=O)O)[C@@H](C)CC)[C@@H](C)CC)[C@@H](C)CC)[C@@H](C)O [Peptide 313] | 0.51 ± 0.11 µM
11 | CC[C@H](C)[C@H](NC(=O)[C@H](C)NC(=O)[C@H](CC(C)C)NC(=O)[C@H](CO)NC(=O)[C@H](CC(N)=O)NC(=O)[C@H](CC(C)C)NC(=O)[C@H](Cc1ccccc1)NC(=O)[C@H](CCCNC(=N)N)NC(=O)[C@H](CCSC)NC(=O)[C@H](CC(=O)O)NC(=O)[C@H](Cc1ccccc1)NC(=O)[C@H](CCC(N)=O)NC(=O)CNC(=O)[C@@H](NC(=O)[C@@H](N)Cc1ccc(O)cc1)[C@@H](C)CC)C(=O)N[C@@H](Cc1c[nH]cn1)C(=O)N[C@@H](CCC(=O)O)C(=O)N[C@@H](CCCCN)C(=O)N[C@@H](Cc1ccccc1)C(=O)N[C@@H](CC(=O)O)C(=O)N[C@@H](C)C(=O)O [Peptide 314] | 0.004 ± 0.001 µM
12 | CC[C@H](C)[C@H](NC(=O)[C@@H]1CCCN1C(=O)[C@H](CO)NC(=O)CNC(=O)[C@H](CO)NC(=O)[C@H](CC(C)C)NC(=O)[C@H](CC(C)C)NC(=O)[C@H](CC(C)C)NC(=O)[C@H](Cc1ccccc1)NC(=O)[C@@H]1CCCN1C(=O)[C@@H](NC(=O)[C@H](CCCCN)NC(=O)[C@H](CC(N)=O)NC(=O)[C@H](CCCCN)NC(=O)[C@@H](N)CC(N)=O)[C@@H](C)CC)C(=O)N[C@H](C(=O)N[C@@H](CC(N)=O)C(=O)N[C@H](C(=O)N1CCC[C@H]1C(=O)N[C@@H](CC(N)=O)C(=O)N[C@H](C(=O)O)[C@@H](C)O)[C@@H](C)O)[C@@H](C)O [Peptide 316] | 0.045 ± 0.019 µM
13 | CC[C@H](C)[C@H](NC(=O)[C@H](CCSC)NC(=O)[C@@H](N)Cc1ccc(O)cc1)C(=O)N[C@H](C(=O)N[C@H](C(=O)NCC(=O)N[C@H](C(=O)N[C@H](C(=O)N[C@H](C(=O)N[C@@H](CC(C)C)C(=O)N[C@@H](C)C(=O)N[C@@H](C)C(=O)N[C@@H](CC(C)C)C(=O)N[C@@H](Cc1ccccc1)C(=O)N[C@@H](CCSC)C(=O)N[C@@H](Cc1ccc(O)cc1)C(=O)N[C@@H](Cc1ccc(O)cc1)C(=O)N[C@@H](C)C(=O)N[C@@H](CCCCN)C(=O)N[C@@H](CCCNC(=N)N)C(=O)N[C@@H](CCSC)C(=O)O)[C@@H](C)CC)[C@@H](C)CC)C(C)C)[C@@H](C)CC)C(C)C [Peptide 317] | 0.675 ± 0.185 µM
14 | CC[C@H](C)[C@H](NC(=O)[C@H](CO)NC(=O)[C@H](CCSC)NC(=O)[C@H](CO)NC(=O)[C@H](Cc1ccc(O)cc1)NC(=O)[C@@H](NC(=O)[C@@H](NC(=O)[C@H](CO)NC(=O)[C@@H]1CCCN1C(=O)[C@H](Cc1ccccc1)NC(=O)[C@H](CC(C)C)NC(=O)[C@H](CC(C)C)NC(=O)[C@@H](NC(=O)[C@@H](NC(=O)[C@@H](NC(=O)[C@H](CC(C)C)NC(=O)[C@H](CO)NC(=O)[C@H](CCCNC(=N)N)NC(=O)[C@@H](N)CCSC)[C@@H](C)CC)[C@@H](C)CC)C(C)C)[C@@H](C)CC)[C@@H](C)CC)C(=O)N[C@@H](CCCNC(=N)N)C(=O)N[C@@H](CCCNC(=N)N)C(=O)O [Peptide 319] | 1.89 µM
15 | CC[C@H](C)[C@H](NC(=O)[C@@H](NC(=O)[C@H](CC(N)=O)NC(=O)[C@H](CCCNC(=N)N)NC(=O)[C@H](Cc1c[nH]cn1)NC(=O)[C@H](CCCNC(=N)N)NC(=O)[C@@H](NC(=O)[C@H](Cc1ccc(O)cc1)NC(=O)[C@H](CCC(=O)O)NC(=O)[C@H](C)NC(=O)[C@H](CC(C)C)NC(=O)[C@@H](NC(=O)[C@H](CC(C)C)NC(=O)[C@H](CCCCN)NC(=O)[C@H](Cc1ccccc1)NC(=O)[C@H](CO)NC(=O)[C@H](Cc1ccc(O)cc1)NC(=O)[C@H](CCCCN)NC(=O)[C@H](CC(N)=O)NC(=O)[C@H](Cc1ccc(O)cc1)NC(=O)[C@@H](N)CC(C)C)[C@@H](C)CC)[C@@H](C)CC)[C@@H](C)O)C(=O)O [Peptide 321] | 0.185 ± 0.05 µM
